Experiments:
[1] = system: Mackerel (Scomber scombrus); experiment: Mackerel transferred into CO saturated seawater
Description: (§1) Mackerel (Scomber scombrus) of about 700 g bodyweight were transferred from seawater into CO saturated seawater at about 16° C. in a 1 m×1 m plastic tank. CO saturation was achieved by pre-flushing the seawater (250 L) with 99.3% pure carbon monoxide (from Yara AS, Norway) for 5 minutes at 2.0 bar through two Wedge-lock diffusers (from Sterner Aqua, Norway). The CO content was monitored and never exceeded 50 ppm in the vicinity of the tank.

[2] = system: Atlantic halibut (Hippoglossus hippoglossus); experiment: Atlantic halibut transferred into CO saturated seawater
Description: as §1
Atlantic halibut (Hippoglossus hippoglossus) of about 1.5 kg bodyweight were transferred into CO saturated seawater (as in Example 1).

[3] = system: Atlantic salmon (Salmo salar); experiment: Atlantic salmon transferred into CO saturated seawater
Description: as §1
Atlantic salmon (Salmo salar) of 0.7 to 1.5 kg bodyweight were transferred from seawater into CO saturated seawater (as in Example 1).

## [C-]#[O+] [carbon monoxide]
[1]; about 16° C., mackerel about 700 g
  time until fish showed signs of fatigue: about 5 minutes
[1]; continued exposure after signs of fatigue
  further exposure time until fish died and turned belly up: 5 min
[2]; continued exposure after loss of flight reaction
  further exposure time until fish died: two
[2]; halibut about 1.5 kg
  time until flight reaction was not pronounced: about 2 minutes
[3]; continued exposure after anaesthesia
  further exposure time until fish died and turned belly up: more than one
[3]; salmon 0.7 to 1.5 kg
  time until fish were relaxed, sedated and finally anesthetised: about 5 minutes
[3]; until anaesthesia
  signs of stress or discomfort during exposure: no signs of stress or discomfort

Reference: US20110091638A1, “METHOD OF ANIMAL SLAUGHTER” (priority 2007, published 2011)
